US7803382B2, “Method for inducing immune response to NY-CO-58” (Ludwig Institute for Cancer Research Ltd., priority 2001, dated 2010)

Columns and labels:
CD4+ T cells = experiment: ELISPOT of peptide-stimulated CD4+ T cells from patients; type: cell-based, human; conditions: autologous targets presenting peptide
Description: Given the correlation between humoral and cellular immunity observed with CT antigens such as NY-ESO-1 (Jager et al. J Exp Med. 1998 Jan. 19; 187(2):265-70) and SSX2 (Ayyoub et al. J Immunol. 2002 Feb. 15; 168(4):1717-22, Tureci et al. Cancer Res. 1996 Oct. 15; 56(20):4766-72.), these two patients were analyzed to look for the presence of T cell responses. Nine long peptides (30AA) were synthesized from the sequence of NY-CO-58 (SEQ ID NO:20) on the basis of the presence of anchor motifs for various class I molecules. Five prediction algorithms were used to map potential these potential anchor motifs which correspond to potential epitopes, resulting in the selection of the following polypeptides: 3-32 (SEQ ID NO:31), 51-80 (SEQ ID NO:35), 151-180 (SEQ ID NO:36), 271-300 (SEQ ID NO:37), 375-404 (SEQ ID NO:38), 403-432 (SEQ ID NO:33), 510-539 (SEQ ID NO:39), 633-662 (SEQ ID NO:40), and 692-721 (SEQ ID NO:34).
CD8^+ and CD4^+ T cells were then purified from peripheral blood lymphocytes (PBLs) from the two patients and were stimulated with these peptides either individually or in pools of 2-3 peptides (Gnjatic et al. J Immunol. 2003 Feb. 1; 170(3):1191-6). The stimulated CD8^+ T cells were then tested for recognition of the same stimulator peptide(s), either individually or pools in standard ELISPOT assays (Jager Proc Natl Acad Sci USA. 2000 Apr. 25; 97(9):4760-5, Gnjatic et al. Proc Natl Acad Sci USA. 2000 Sep. 26; 97(20):10917-22).
In these same patients CD4^+ T cell responses were investigated. CD4^+ T cells were stimulated with the peptides individually or in pools of 2-3 peptides as done with CD8^+ T cells. The stimulated peptides were tested in ELISPOT assays using autologous targets presenting the stimulator peptide(s). […] Recognition of control autologous targets, either unpulsed cells or cells presenting irrelevant peptide.
An additional sample of PBLs was obtained from patient UKE-16. The patient remained positive for serum NY-CO-58 specific antibody. Again, CD4^+ T cells were stimulated with peptides derived from the NY-CO-58 sequence. This time additional “minimal” 12-mer epitopes selected from within the 30-mer polypeptides using the ProPred prediction algorithm (Singh, H. and Raghava, G. P. S. (2001) ProPred: Prediction of HLA-DR binding sites. Bioinformatics, 17(12), 1236-37, Propred server available online from Drs Raghava and Singh, Bioinformatics Center, Institute of Microbial Technology, Chandigarh, India). The 12-mer peptides corresponded to amino acid 15-26 (SEQ ID NO:32) and 699-710 (SEQ ID NO:41) of NY-CO-58 (SEQ ID NO:20). Analysis of the responses was carried out by ELISPOT assay as before. Peptide 15-26 was recognized by CD4^+ T cells from patient UKE-16 and represents a minimal epitope within amino acid 3-32 (SEQ ID NO:31). This also confirmed that the T cell reactivity was specific to the peptides and not due to an irrelevant contaminant, which would be unlikely to be present within two separate batches of synthetic peptides.

splenocytes = type: cell-based, HHD mice
[1] = system: peripheral blood lymphocytes; type: cell-based, HHD mice
[2] = system: sera from colon cancer patients; experiment: Spot assay: reactivity of serologically defined colon cancer antigens with colon cancer patient sera; type: binding, human; conditions: reactive sera/sera tested; includes autologous where applicable; sera 1:200
Description: Serum samples from patients with colon cancer were screened using a modification of the plaque assay, termed a spot assay. In this method, 80×120 mm nitrocellulose membranes were precoated with a film of NZY/0.7% Agarose/2.5 mM IPTG and placed on a reservoir layer of NZY/0.7% Agarose in a 86×128 mm Omni Tray (Nalge Nunc International Corp., Naperville, Ill.). Approximately 1.0×10^5 pfU of monoclonal phage encoding individual serologically defined colon cancer antigens, in a volume of 20 μl, were mixed with 20 μl of exponentially growing E. coli XL-1 Blue MRF and spotted (0.7-μl aliquots) on the precoated nitrocellulose membranes. Membranes were incubated for 15 hours at 37° C. A total of 75 different serologically defined colon cancer antigens were spotted in duplicate per nitrocellulose membrane. The agarose film was then removed from the membrane and the filters were processed for reactivity with individual serum samples (1:200 dilution), as described in Scanlan, et al., Int. J. Cancer 76:652-658 (1998) and Scanlan, et al., Int. J. Cancer 83:456-64, (1999).

Substance	CD4+ T cell response, ELISPOT (CD4+ T cells; patient UKE-1)	CD4+ T cell response, ELISPOT (CD4+ T cells; patient UKE-16)	ELISPOT response after in vitro restimulation (splenocytes)	ex vivo ELISPOT response from PBL [1]	further results
KHFSALRDVIKALRLAMQLEEQASRQISSK (listed as Homo sapiens) [692-721, fragment of NY-CO-58, residues 692-721]	reactive	reacted very clearly	–	–	–
MDSSLQARLFPGLAIKIQRSNGLIHSANVR (listed as Homo sapiens) [3-32]	reactive	reacted very clearly	–	–	–
LQARLFPGL (listed as Homo sapiens)	–	–	responses were detected	not seen	–
SLLALKECI (listed as Homo sapiens)	–	–	confirmed	showed a response	–
NLEKSCVSV (listed as Homo sapiens)	–	–	responses were detected	not seen	–
KLGLEVYVT (listed as Homo sapiens)	–	–	responses were detected	not seen	–
CO-95 (KIAA1416): serologically defined colon cancer antigen, protein SEQ ID NO:16	–	–	–	–	Reactivity of individual antigens [2]: 4/75
EIYNGKLFDLLNKKAKLRVLEDGKQQVQVV (listed as Homo sapiens) [peptide 403-432, fragment of NY-CO-58, residues 403-432]	responded	–	–	–	–
LAIKIQRSNGLI (listed as Homo sapiens) [peptide 15-26, minimal 12-mer of NY-CO-58, residues 15-26]	–	recognized	–	–	–
